Data reported in the NIST ThermoML archive (doi:10.1021/acs.jced.8b01048).

What was measured:
[1] = xn = mol fraction of the nth substance listed; conditions: 100 kPa, Liquid, Vibrating tube method
[2] = 100 kPa, Liquid, Vibrating tube method

C[S+](C)[O-] [dimethyl sulfoxide] + CC(=O)[O-].CCn1cc[n+](C)c1
[1], x1 = 1
Conditions	mass density [kg/m3]
293.15 K	1100.2
303.15 K	1090.2
313.15 K	1080.4
323.15 K	1070.2
333.15 K	1060.3
343.15 K	1050.2
353.15 K	1040.2
363.15 K	1029.9
373.15 K	1019.8

CC(=O)[O-].C[N+](C)(C)CCO [choline acetate] + C[S+](C)[O-]
mass density [kg/m3], [1]
Conditions	293.15 K	303.15 K	313.15 K	323.15 K	333.15 K	343.15 K	353.15 K	363.15 K	373.15 K
x2 = 0.503	–	–	–	–	–	1067.3	1060.8	1054.6	1048.4
x2 = 0.598	–	–	–	–	1073.6	1066.7	1059.8	1053	1046.4
x2 = 0.701	–	–	–	1079.6	1072.3	1065	1057.6	1050.4	1043.3
x2 = 0.799	–	–	1086	1077.9	1070	1061.8	1053.8	1045.6	1037.6
x2 = 0.899	1102.7	1093.9	1085.1	1076.3	1067.4	1058.6	1049.8	1040.9	1032.3

CC(=O)[O-].CCn1cc[n+](C)c1 [1-ethyl-3-methylimidazolium acetate]
[2]
Conditions	mass density [kg/m3]
293.15 K	1101.7
303.15 K	1095.6
313.15 K	1089.6
323.15 K	1083.7
333.15 K	1077.7
343.15 K	1071.8
353.15 K	1065.9
363.15 K	1060
373.15 K	1054.2

C[S+](C)[O-] [dimethyl sulfoxide] + O
[1], x1 = 0.998
Conditions	mass density [kg/m3]
293.15 K	1100.2
303.15 K	1090.2
313.15 K	1080.4
323.15 K	1070.2
333.15 K	1060.3
343.15 K	1050.2
353.15 K	1040.2
363.15 K	1029.9
373.15 K	1019.8

CC(=O)[O-].CCn1cc[n+](C)c1 [1-ethyl-3-methylimidazolium acetate] + O
[1], x2 = 0.018
Conditions	mass density [kg/m3]
293.15 K	1101.7
303.15 K	1095.6
313.15 K	1089.6
323.15 K	1083.7
333.15 K	1077.7
343.15 K	1071.8
353.15 K	1065.9
363.15 K	1060
373.15 K	1054.2

C[S+](C)[O-] [dimethyl sulfoxide]
[2]
Conditions	mass density [kg/m3]
293.15 K	1100.2
303.15 K	1090.2
313.15 K	1080.4
323.15 K	1070.2
333.15 K	1060.3
343.15 K	1050.2
353.15 K	1040.2
363.15 K	1029.9
373.15 K	1019.8
